The test system of data set [1] is IL-1-induced chondrocytic chondrolysis. Briefly: Modulation of the IL-1-induced chondrocytic chondrolysis (chondrolysis compensation). As to conditions: stimulation factor = proteoglycan content with active compound / IL-1-treated control; interleukin-1 for 8 days, 35S-sulfate incorporation 24 hours; factor >1 = stimulation. Format: cell-based, bulls. The procedure:
(§1) Cartilage cells can maintain their characteristic cartilage matrix metabolism ex vivo in suitable cell or tissue culture, i.e. the controlled synthesis and degradation of the matrix macromolecules, over a period of several weeks to months. These processes can be chemically influenced. […] In both assays, the stimulating action of the test substance is expressed by a stimulation factor which is calculated from the quotient of the specific proteoglycan content under the active compound condition divided by the proteoglycan content under the control condition. In Experiment A, the control condition is the untreated control group and in experimental procedure B this is the interleukin-1 (IL-1)-treated control group. A factor=1 can thus identify no action, a factor of >1 points to a stimulation and a factor of <1 to an inhibitory action.
B) Modulation of the IL-1-induced Chondrocytic Chondrolysis (Chondrolysis Compensation)
Cell preparation was carried out as described under A), if cartilage tissue explants are used these are added directly to the enriched culture medium described above after stamping out cartilage disks of 4 mm diameter and a depth which includes the entire cartilage layer. After adaptation for 5 days, interleukin-1 is added to the medium, 8 units/well for the cell culture, 20 units/well for the tissue culture, and, over the treatment period of 8 days, likewise added again every second day on changing the medium. At the end of the experiments, 1 μCi of Na2^35SO4/well is added and the mixture is incubated for 24 hours. After removing the supernatant, the remaining gels or explants are broken down in the microtiter plates by repeated deepfreezing and thawing and extracted with 8 M guanidine hydrochloride. After centrifugation, the supernatant is separated on a PD10 Sephadex column into free and incorporated sulfate and the radioactivity of the samples, which is a measure of the amount of proteoglycan newly formed, is determined in a β counter.

The subject of data set [2] is chondrocytic proteoglycan metabolism. Briefly: Modulation of the chondrocytic proteoglycan metabolism (PG stimulation). Format: cell-based, bulls. As to conditions: stimulation factor = proteoglycan content with active compound / untreated control, 10 μm test substance, 8 days, chondrocytes in agarose, Alcian Blue extinction at 610 nm, factor >1 = stimulation; for fold induction at 10 µM: Chondrocyte, 192 h. The procedure:
as §1
A) Modulation of the chondrocytic proteoglycan metabolism (PG stimulation)
Cartilage samples are taken under sterile conditions from fetlock joints of freshly slaughtered bulls, incubated with 1% strength pronase (Boehringer) solution in Ham's F12 medium (Serva) at 37° C. for 1 hour, and the enzyme solution is replaced by a 0.025% strength collagenase type A (Worthington) solution in medium and incubated overnight. After filtering through a 50 μm nylon filter, centrifugation, resuspension and vitality testing, a cell suspension of 4×10^6 cells/ml of medium, enriched with 20% fetal calf serum, is prepared and mixed at approximately 38° C. with 2% strength low-melting agarose (Seplaque) in the ratio 1:1 and 0.1 ml of this is pipetted into each well of a 24 well microtiter plate. After gelling, the samples are covered with a layer of 0.5 ml/well of medium, which is enriched with 5% serum, 25 μm/ml of ascorbic acid, and in groups of up to 6-8 wells with 10 μm of the test substance. The medium in a constant composition is renewed every second day for a treatment period of 8 days. At the end of the treatment, washing is carried out with medium, 1 ml of a buffered (pH 5.6) 1% strength Alcian Blue (Sigma) solution, enriched with 25% strength glutaraldehyde in the ratio 7:1, per well is added and the mixture is incubated for 48 hours. After washing and differentiating with 3% strength acetic acid, dehydration is carried out up to 70% strength ethanol content by means of the rising alcohol series, and then the bound dye is extracted at 4° C. for 24 hours using 8 M guanidine hydrochloride. The stoichiometric binding of the Alcian Blue to the chondroitin sulfate side chains of the proteoglycans allows a quantification of the enriched matrix via the determination of the extinction of the dye solution at 610 nm.

Where a name gives a salt, the structure may show the parent alone.

Usually melting point stands for the temperature, or range, at which the solid turns liquid. Take `C[C@@H](O)C/C(O)=C(\C#N)C(=O)Nc1ccc(C(F)(F)F)cc1` (as salt: salt) [Example 10a, N-(4-Trifluoromethylphenyl)-2-cyano-3,5-dihydroxyhex-2-enecarboxamide Lysinium Salt, R Isomer]: the melting point came out at 156 °C.
The same measure, in the same setting: to `C[C@H](O)C/C(O)=C(\C#N)C(=O)Nc1ccc(C(F)(F)F)cc1` (as salt: salt) [Example 10b, N-(4-Trifluormethylphenyl)-2-cyano-3,5-dihydroxyhex-2-enecarboxamide Lysinium Salt, S-isomer] belongs 157 °C; to `CC(O)C/C(O)=C(\C#N)C(=O)Nc1ccc(C(F)(F)F)cc1` (centres unmarked) (as salt: salt) [Example 37, N-(4-Trifluoromethylphenyl)-2-cyano-3,5-dihydroxyhex-2-carboxamide Lysinium Salt], 135 to 138 °C.
The molecule `CC(C)(O)C/C(O)=C(\C#N)C(=O)Nc1ccccc1` [Example 1, N-(Phenyl)-2-cyano-3,5-dihydroxy-5-methylhex-2-enecarboxamide] yielded a melting point of 103 °C. This molecule yielded a Chondrolysis compensation in data set [1] of 1.4.
As a reminder, the fold induction is the signal under treatment as a multiple of the control signal. In turn, `CC(C)(O)C/C(O)=C(\C#N)C(=O)Nc1ccc(C(F)(F)F)cc1` [Example 2] gave a melting point of 155 °C. The molecule also returned a Chondrolysis compensation in data set [1] of 1.9. Also, in data set [2], the fold induction at 10 µM was found to be 1.8.
Regarding `CC(C)(O)C/C(O)=C(\C#N)C(=O)NCc1ccccc1` [Example 3], the Chondrolysis compensation in data set [1] worked out at 1.5.
In turn, `CC(C)(O)C/C(O)=C(\C#N)C(=O)NCCc1ccccc1` [Example 4] yielded a melting point of 81 °C. Also, the Chondrolysis compensation in data set [1] is on record as 1.5.
The corresponding values for `CC(O)C/C(O)=C(\C#N)C(=O)Nc1ccccc1` (centres unmarked) [Example 5] are 101 °C and 1.8.
In data set [1], `CC(O)C/C(O)=C(\C#N)C(=O)NCc1ccccc1` (centres unmarked) [Example 6] displayed a Chondrolysis compensation of 1.9.
`CC(O)C/C(O)=C(\C#N)C(=O)NCCc1ccccc1` (centres unmarked) [Example 7] had a melting point of 91 °C. In addition, the Chondrolysis compensation in data set [1] is on record as 1.3.
The corresponding values for `CC(O)C/C(O)=C(\C#N)C(=O)Nc1ccc(Cl)cc1` (centres unmarked) [Example 8] are 152 °C and 2.1.
With `CC(O)C/C(O)=C(\C#N)C(=O)Nc1ccc(C(F)(F)F)cc1` (centres unmarked) [Example 9], the Chondrolysis compensation in data set [1] is given as 1.6. Also, the fold induction at 10 µM in data set [2] worked out at 1.5.
The molecule `C[C@@H](O)C/C(O)=C(\C#N)C(=O)Nc1ccc(C(F)(F)F)cc1` [Example 10a, N-(4-Trifluoromethylphenyl)-2-cyano-3,5-dihydroxyhex-2-enecarboxamide Lysinium Salt, R Isomer] returned a Chondrolysis compensation in data set [1] of 1.1.
In the case of `C[C@H](O)C/C(O)=C(\C#N)C(=O)Nc1ccc(C(F)(F)F)cc1` [Example 10b, N-(4-Trifluormethylphenyl)-2-cyano-3,5-dihydroxyhex-2-enecarboxamide Lysinium Salt, S-isomer], the Chondrolysis compensation in data set [1] is 1.7.
For `Cc1ccc(C(O)C/C(O)=C(\C#N)C(=O)Nc2ccc(C(F)(F)F)cc2)cc1` (centres unmarked) [Example 11], the melting point lay in the range of 170 to 171 °C.
With `N#C/C(C(=O)Nc1ccc(Cl)cc1)=C(/O)CC(O)c1ccccc1` (centres unmarked) [Example 12], the melting point was 178 °C.
With `Cc1cc(NC(=O)/C(C#N)=C(\O)CC(O)c2ccccc2)ccc1Cl` (centres unmarked) [Example 13], the melting point amounted to 165 °C. Also, the Chondrolysis compensation in data set [1] worked out at 1.1.
In turn, `Cc1ccc(C(O)C/C(O)=C(\C#N)C(=O)Nc2ccc(C(F)(F)F)cc2)cc1` (centres unmarked) [Example 14] returned a melting point of 180 °C.
`N#C/C(C(=O)Nc1ccc(C(F)(F)F)cc1)=C(/O)CC(O)c1ccc(OCc2ccccc2)cc1` (centres unmarked) [Example 15] came in with a Chondrolysis compensation in data set [1] of 1.2.
`N#C/C(C(=O)Nc1ccc(C(F)(F)F)cc1)=C(/O)CC(O)c1ccc(C#N)cc1` (centres unmarked) [Example 16] gave a melting point of 180 °C. Besides, the Chondrolysis compensation in data set [1] is 1.1.
With `N#C/C(C(=O)Nc1ccc(C(F)(F)F)cc1)=C(/O)CC(O)c1ccc(C(F)(F)F)cc1` (centres unmarked) [Example 17], the melting point was 178 °C.
Molecule `COc1cc(C(O)C/C(O)=C(\C#N)C(=O)Nc2ccc(C(F)(F)F)cc2)cc(OC)c1OC` (centres unmarked) [Example 18] returned a melting point of 154 °C. For the same molecule, in data set [1], the Chondrolysis compensation was found to be 1.2. The fold induction at 10 µM in data set [2] was 1.1.
`N#C/C(C(=O)Nc1ccc(C(F)(F)F)cc1)=C(/O)CC(O)c1ccc2c(c1)OCO2` (centres unmarked) [Example 19] had a Chondrolysis compensation in data set [1] of 1.3. The molecule also came in with a fold induction at 10 µM in data set [2] of 1.1.
As to `N#C/C(C(=O)Nc1ccc(C(F)(F)F)cc1)=C(/O)CC(O)c1ccncc1` (centres unmarked) [Example 20], the melting point amounted to 203 °C.
For `N#C/C(C(=O)Nc1ccc(C(F)(F)F)cc1)=C(/O)CC(O)c1cccnc1` (centres unmarked) [Example 21], the melting point was 203 °C. Further, in data set [1], the Chondrolysis compensation was found to be 1.3. The fold induction at 10 µM in data set [2] turned out to be 1.2.
`N#C/C(C(=O)Nc1ccc(C(F)(F)F)cc1)=C(/O)CC(O)c1ccco1` (centres unmarked) [Example 22]: the Chondrolysis compensation in data set [1] was 1.9. The fold induction at 10 µM in data set [2] came out at 1.1.
Molecule `N#C/C(C(=O)Nc1ccc(C(F)(F)F)cc1)=C(/O)CC(O)c1ccoc1` (centres unmarked) [Example 23] yielded a melting point of 146 °C. The Chondrolysis compensation in data set [1] came to 1.9.
In turn, `N#C/C(C(=O)Nc1ccc(C(F)(F)F)cc1)=C(/O)CC(O)c1cccs1` (centres unmarked) [Example 24] had a Chondrolysis compensation in data set [1] of 1.9.
`N#C/C(C(=O)Nc1ccc(C(F)(F)F)cc1)=C(/O)CC(O)/C=C/c1ccccc1` (centres unmarked) [Example 25] showed a melting point of 168 to 172 °C.
The molecule `N#C/C(C(=O)Nc1ccc(C(F)(F)F)cc1)=C(/O)CC(O)C#Cc1ccccc1` (centres unmarked) [Example 26] registered a melting point of 168 °C. This molecule also gave a Chondrolysis compensation in data set [1] of 1.9.
`C=C(C)C(O)C/C(O)=C(\C#N)C(=O)Nc1ccc(C(F)(F)F)cc1` (centres unmarked) [Example 28] yielded a fold induction at 10 µM in data set [2] of 1.1.
On to `CC(C)=CC(O)C/C(O)=C(\C#N)C(=O)Nc1ccc(C(F)(F)F)cc1` (centres unmarked) [Example 29], for which, in data set [1], the Chondrolysis compensation amounted to 1.7. Also, in data set [2], the fold induction at 10 µM worked out at 1.1.
For `CC(C)=CCC/C(C)=C/C(O)C/C(O)=C(\C#N)C(=O)Nc1ccc(C(F)(F)F)cc1` (centres unmarked) [Example 30], the melting point was in the range of 114 to 116 °C. Moreover, in data set [1], the Chondrolysis compensation is reported as 1.3.
In turn, `CCCCC(C)(O)C/C(O)=C(\C#N)C(=O)Nc1ccc(C(F)(F)F)cc1` (centres unmarked) [Example 31] came in with a Chondrolysis compensation in data set [1] of 1.6.
`CC(O)(C/C(O)=C(\C#N)C(=O)Nc1ccc(C(F)(F)F)cc1)C1CC1` (centres unmarked) [Example 32] returned a Chondrolysis compensation in data set [1] of 1.8. In data set [2], this molecule showed a fold induction at 10 µM of 1.1.
In turn, `N#C/C(C(=O)Nc1ccc(C(F)(F)F)cc1)=C(/O)CC(O)C1CC1` (centres unmarked) [Example 33] displayed a Chondrolysis compensation in data set [1] of 1.9.
Molecule `N#C/C(C(=O)Nc1ccc(C(F)(F)F)cc1)=C(/O)CC(=O)O` [Example 36] had a Chondrolysis compensation in data set [1] of 1.8.
In data set [1], `CC(O)C/C(O)=C(\C#N)C(=O)Nc1ccc(C(F)(F)F)cc1` (centres unmarked) [Example 37, N-(4-Trifluoromethylphenyl)-2-cyano-3,5-dihydroxyhex-2-carboxamide Lysinium Salt] yielded a Chondrolysis compensation of 1.9. In data set [2], this molecule registered a PG stimulation of 1.1.
With `CC(C)(O)C/C(O)=C(\C#N)C(=O)Nc1ccc(C(F)(F)F)cc1` [Example 38], the melting point fell in the range of 145 to 148 °C. Further, the Chondrolysis compensation in data set [1] is reported as 1.8.

(Values after patent publication US6387934B1, “2-Cyano-3,5-dihydroxyhex-2-enecarboxamide derivatives” (Aventis Pharma Deutschland GmbH, priority 1996, dated 2002).)
